Results published in paper PMC9564337, “Development of a Neurotensin-Derived ^68Ga-Labeled PET Ligand with High In Vivo Stability for Imaging of NTS1 Receptor-Expressing Tumors” (Cancers, 2022).
Like-named read-outs stand apart in the source and are kept apart here.

How the values were obtained:
in vitro = in vitro ADME; conditions: human; for remaining at 1 h, 100 µM: pH 7.4, % Intact Peptide in Plasma after 1 h; for remaining at 6 h, 100 µM: pH 7.4, % Intact Peptide in Plasma after 6 h; for remaining at 24 h, 100 µM: pH 7.4, % Intact Peptide in Plasma after 24 h; for remaining at 48 h, 100 µM: pH 7.4, % Intact Peptide in Plasma after 48 h; for % Intact Peptide in Plasma after 1 h / % Intact Peptide in Plasma after 6 h / % Intact Peptide in Plasma after 24 h / % Intact Peptide in Plasma after 48 h: 100 µM, pH 7.4
Experimental: The concentration of the peptides in plasma/PBS (1:2 v/v) was 80 and 4 μM (recovery determination) or 100 μM (stability tests). Data analysis was based on UV detection at 220 nm (8, 9, 11, 12, 14-18, 21-23, 38-49, and 54-57) or fluorescence detection at 275/305 nm (19 and 20). Reference samples, representing 100% recovery, were prepared in duplicate (8, 9, 11, 14-16, and 19-21) or quadruplicate (12, 17, 18, 22, 23, 38-49, and 54-57). Recovery ratios were obtained by dividing the recovery of the peptide by the recovery of IS for each individual sample (n = 3-5). The obtained recoveries and the recovery ratios are summarized in Table S2, Supplementary Materials. […] Instead, the recovery ratios determined for the previously reported, structurally closely related peptide […] [40] were used for calculating the amount of remaining intact peptide in plasma.

hNTS1R = target: T1, hNTS1R (Homo sapiens, UniProt P30989); experiment: radioligand competition binding with [3H]UR-MK300 at intact HT-29 cells
T1 construct: intact HT-29 colon carcinoma cells expressing the hNTS1R; host or cells: HT-29 human colon carcinoma cells
T1 sequence (P30989 whole entry): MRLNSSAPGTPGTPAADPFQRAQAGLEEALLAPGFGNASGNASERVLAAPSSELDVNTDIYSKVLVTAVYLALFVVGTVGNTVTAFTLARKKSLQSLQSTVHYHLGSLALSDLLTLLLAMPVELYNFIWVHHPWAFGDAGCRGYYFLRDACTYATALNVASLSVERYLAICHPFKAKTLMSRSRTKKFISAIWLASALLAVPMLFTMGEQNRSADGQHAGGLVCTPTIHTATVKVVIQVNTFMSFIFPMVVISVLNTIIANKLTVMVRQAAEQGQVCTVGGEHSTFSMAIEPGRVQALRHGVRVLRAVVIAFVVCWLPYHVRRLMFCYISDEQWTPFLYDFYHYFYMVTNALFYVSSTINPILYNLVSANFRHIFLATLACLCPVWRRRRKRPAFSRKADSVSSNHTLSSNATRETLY
From the text: Specific binding data (obtained by subtracting unspecific binding from total binding) were normalized (100% = specifically bound radioligand in the absence of competitor) and plotted over log(concentration of competitor) followed by a four-parameter logistic fit (SigmaPlot 12.5, Systat Software, San José, CA, USA) (note: in the case of 40, the lower curve plateau of the sigmoidal fit was constrained to >0). […] The Ki values from individual experiments were transformed to pKi values, followed by the calculation of mean pKi values ± SD.

[1] = [3H]UR-MK300 c = 1 nM, HT-29 cells, 23 °C, read-out: Ki [nM] NTS1R (converted)
[2] = [3H]UR-MK300 c = 1 nM, HT-29 cells, 23 °C, read-out: pKi ± SD NTS1R (converted)

Row | remaining at 1 h, 100 µM (in vitro; plasma) [%] | remaining at 6 h, 100 µM (in vitro; plasma) [%] | remaining at 24 h, 100 µM (in vitro; plasma) [%] | remaining at 48 h, 100 µM (in vitro; plasma) [%] | Ki (hNTS1R; [1]) [nM] | Ki (hNTS1R; [2]) [nM] | Compound | further results
1 | 99 ± 2 | 57 ± 2 | 3 ± 0.1 | 1.4 ± 0.3 |  |  | CC[C@H](C)[C@H](NC(=O)[C@H](Cc1ccc(O)cc1)NC(=O)[C@@H]1CCCN1C(=O)[C@H](CCCNC(=N)NC(=O)NCCCCN)NC(=O)[C@H](CCCNC(=N)N)NC)C(=O)N[C@@H](CC(C)C)C(=O)O [Compound 9] | 
2 | 97 ± 3 | 97 ± 3 | 94 ± 3 | 91 ± 3 | 2.7 | 2.45 | CN[C@@H](CCCNC(=N)NC(=O)NCCOCCOCCN)C(=O)N[C@@H](CCCNC(=N)N)C(=O)N1CCC[C@H]1C(=O)N[C@@H](Cc1ccc(O)cc1)C(=O)N[C@H](C(=O)N[C@@H](CC(C)C)C(=O)O)C(C)(C)C [Compound 12] | 
3 |  |  |  |  |  |  | CC[C@H](C)[C@H](NC(=O)[C@H](Cc1ccc(O)cc1)NC(=O)[C@@H]1CCCN1C(=O)[C@H](CCCNC(=N)NC(=O)NCCCCNC(=O)CN1CCN(CC(=O)O)CCN(CC(=O)O)CCN(CC(=O)O)CC1)NC(=O)[C@H](CCCNC(=N)N)NC)C(=O)N[C@@H](CC(C)C)C(=O)O [Compound 15] | % Intact Peptide in Plasma after 1 h (in vitro): 78 ± 1%; % Intact Peptide in Plasma after 6 h (in vitro): 8.3 ± 0.4%
4 |  | 99 ± 1 |  |  | 36 |  | CN[C@@H](CCCNC(=N)NC(=O)NCCOCCOCCNC(=O)CN1CCN(CC(=O)O)CCN(CC(=O)O)CCN(CC(=O)O)CC1)C(=O)N[C@@H](CCCNC(=N)N)C(=O)N1CCC[C@H]1C(=O)N[C@@H](Cc1ccc(O)cc1)C(=O)N[C@H](C(=O)N[C@@H](CC(C)C)C(=O)O)C(C)(C)C [Compound 18] | % Intact Peptide in Plasma after 24 h (in vitro): 94 ± 1%; % Intact Peptide in Plasma after 48 h (in vitro): 86 ± 1%
5 |  |  | 15 ± 1 | 4.6 ± 0.1 |  |  | CC[C@H](C)[C@H](NC(=O)[C@H](Cc1ccc(O)cc1)NC(=O)[C@@H]1CCCN1C(=O)[C@H](CCCNC(=N)NC(=O)NCCCCNC(=O)CN1CCN(CC(=O)O)CCN(CC(=O)O)CCN(CC(=O)O)CC1)NC(=O)[C@H](CCCNC(=N)N)NC)C(=O)N[C@@H](CC(C)C)C(=O)O [Compound 20] | % Intact Peptide in Plasma after 1 h (in vitro): >99%; % Intact Peptide in Plasma after 6 h (in vitro): 77 ± 2%
6 | > 99 |  |  |  | 7.5 |  | CN[C@@H](CCCNC(N)=NC(=O)NCCOCCOCCNC(=O)CN1CCN(CC(=O)O)CCN(CC(=O)O)CCN(CC(=O)O)CC1)C(=O)N[C@@H](CCCNC(=N)N)C(=O)N1CCC[C@H]1C(=O)N[C@@H](Cc1ccc(O)cc1)C(=O)N[C@H](C(=O)N[C@@H](CC(C)C)C(=O)O)C(C)(C)C [Compound 23] | % Intact Peptide in Plasma after 6 h (in vitro): 98 ± 6%; % Intact Peptide in Plasma after 24 h (in vitro): 46 ± 2%; % Intact Peptide in Plasma after 48 h (in vitro): 7.8 ± 0.6%; pKi ± SD NTS1R (hNTS1R; [3H]UR-MK300 c = 1 nM, HT-29 cells, 23 °C): 8.13 ± 0.11
7 |  |  |  |  | 4.3 | 4.27 | CN[C@@H](CCCNC(N)=NC(=O)NCCCCNC(=O)[C@H](N)Cc1ccc(-c2ccc(F)cc2)cc1)C(=O)N[C@@H](CCCNC(=N)N)C(=O)N1CCC[C@H]1C(=O)N[C@@H](Cc1ccc(O)cc1)C(=O)N[C@H](C(=O)N[C@@H](CC(C)C)C(=O)O)C(C)(C)C [Compound 25] | 
8 |  |  |  |  | 3.1 | 3.02 | CN[C@@H](CCCNC(N)=NC(=O)NCCOCCOCCNC(=O)[C@H](N)Cc1ccc(-c2ccc(F)cc2)cc1)C(=O)N[C@@H](CCCNC(=N)N)C(=O)N1CCC[C@H]1C(=O)N[C@@H](Cc1ccc(O)cc1)C(=O)N[C@H](C(=O)N[C@@H](CC(C)C)C(=O)O)C(C)(C)C [Compound 26] | 
9 |  |  |  |  | 12 | 10.7 | CN[C@@H](CCCNC(N)=NC(=O)NCCOCCOCCNC(=O)[C@@H](Cc1ccc(-c2ccc(F)cc2)cc1)NC(=O)CCCCCNC(=O)CN1CCN(CC(=O)O)CCN(CC(=O)O)CCN(CC(=O)O)CC1)C(=O)N[C@@H](CCCNC(=N)N)C(=O)N1CCC[C@H]1C(=O)N[C@@H](Cc1ccc(O)cc1)C(=O)N[C@H](C(=O)N[C@@H](CC(C)C)C(=O)O)C(C)(C)C [Compound 32] | 
10 |  |  |  |  |  |  | CN[C@@H](CCCNC(N)=NC(=O)NCCOCCOCCNC(=O)[C@@H](Cc1ccc(-c2ccc(F)cc2)cc1)NC(=O)CCCCCNC(=O)CN1CCN(CC(=O)O)CCN(CC(=O)O)CCN(CC(=O)O)CC1)C(=O)N[C@@H](CCCNC(=N)N)C(=O)N1CCC[C@H]1C(=O)N[C@@H](Cc1ccc(O)cc1)C(=O)N[C@H](C(=O)N[C@@H](CC(C)C)C(=O)O)C(C)(C)C [Compound 33] | increase in NTS1R affinity upon insertion of Ga3+ (hNTS1R; versus the precursor with empty DOTA chelator (32 or 54)): 4.8 fold
11 |  |  |  |  | 10 | 10.2 | CN[C@@H](CCCNC(N)=NC(=O)NCCCCNC(=O)[C@@H](Cc1ccc(-c2ccc(F)cc2)cc1)NC(=O)CN1CCN(CC(=O)O)CCN(CC(=O)O)CCN(CC(=O)O)CC1)C(=O)N[C@@H](CCCNC(=N)N)C(=O)N1CCC[C@H]1C(=O)N[C@@H](Cc1ccc(O)cc1)C(=O)N[C@H](C(=O)N[C@@H](CC(C)C)C(=O)O)C(C)(C)C [Compound 34] | 
12 |  |  |  |  | 14 | 13.5 | CN[C@@H](CCCNC(N)=NC(=O)NCCOCCOCCNC(=O)[C@@H](Cc1ccc(-c2ccc(F)cc2)cc1)NC(=O)CN1CCN(CC(=O)O)CCN(CC(=O)O)CCN(CC(=O)O)CC1)C(=O)N[C@@H](CCCNC(=N)N)C(=O)N1CCC[C@H]1C(=O)N[C@@H](Cc1ccc(O)cc1)C(=O)N[C@H](C(=O)N[C@@H](CC(C)C)C(=O)O)C(C)(C)C [Compound 35] | 
13 | 92 ± 1 | 87 ± 1 | 70 ± 1 | 52 ± 1 | 4.8 | 4.68 | CC[C@@H](C)[C@H](NC(=O)[C@H](Cc1ccc(O)cc1)NC(=O)[C@@H]1CCCN1C(=O)[C@H](CCCNC(=N)N)NC(=O)[C@H](CCCNC(=N)N)NC)C(=O)N[C@@H](CC(C)C)C(=O)O [Compound 38] | 
14 | 93 ± 1 | 94 ± 1 | 93 ± 1 | 93 ± 1 | > 1000 | > 1000 | CCC(CC)(NC(=O)[C@H](Cc1ccc(O)cc1)NC(=O)[C@@H]1CCCN1C(=O)[C@H](CCCNC(=N)N)NC(=O)[C@H](CCCNC(=N)N)NC)C(=O)N[C@@H](CC(C)C)C(=O)O [Compound 39] | 
15 | 88 ± 1 | 58 ± 1 | < 1 | < 1 | 9.6 | 8.91 | CN[C@@H](CCCNC(=N)N)C(=O)N[C@@H](CCCNC(=N)N)C(=O)N1CCC[C@H]1C(=O)N[C@@H](Cc1ccc(O)cc1)C(=O)N[C@H](C(=O)N[C@@H](CC(C)C)C(=O)O)C1CC1 [Compound 40] | 
16 | 92 ± 1 | 74 ± 1 | 15 ± 1 | < 1 | 5 |  | CN[C@@H](CCCNC(=N)N)C(=O)N[C@@H](CCCNC(=N)N)C(=O)N1CCC[C@H]1C(=O)N[C@@H](Cc1ccc(O)cc1)C(=O)N[C@@H](CC1CC1)C(=O)N[C@@H](CC(C)C)C(=O)O [Compound 41] | 
17 | 89 ± 1 | 88 ± 1 | 81 ± 1 | 73 ± 1 |  |  | CC[C@H](C)[C@H](NC(=O)[C@H](Cc1ccc(O)cc1)NC(=O)[C@@H]1CCCN1C(=O)[C@H](CCCNC(=N)N)NC(=O)[C@H](CCCNC(=N)N)NC)C(=O)N[C@@](C)(CC(C)C)C(=O)O [Compound 47] | 
18 | 90 ± 4 | 97 ± 6 | 92 ± 1 | 92 ± 1 |  |  | CC[C@H](C)[C@H](NC(=O)[C@@H](NC(=O)[C@@H]1CCCN1C(=O)[C@H](CCCNC(=N)N)NC(=O)[C@H](CCCNC(=N)N)NC)C(C)(C)c1ccc(O)cc1)C(=O)N[C@@H](CC(C)C)C(=O)O [Compound 48] | 
19 | 96 ± 2 | 96 ± 1 | 94 ± 5 | 95 ± 2 |  |  | CC[C@H](C)[C@H](NC(=O)[C@H](NC(=O)[C@@H]1CCCN1C(=O)[C@H](CCCNC(=N)N)NC(=O)[C@H](CCCNC(=N)N)NC)C(C)(C)c1ccc(O)cc1)C(=O)N[C@@H](CC(C)C)C(=O)O [Compound 49] | 
20 |  |  |  |  | 85 | 79.4 | CN[C@@H](CCCNC(=N)NC(=O)NCCCCNC(=O)CN1CCN(CC(=O)O)CCN(CC(=O)O)CCN(CC(=O)O)CC1)C(=O)N[C@@H](CCCNC(=N)N)C(=O)N1CCC[C@H]1C(=O)N[C@H](C(=O)N[C@H](C(=O)N[C@@H](CC(C)C)C(=O)O)C(C)(C)C)C(C)(C)c1ccc(O)cc1 [Compound 55] | 
21 | > 99 | > 99 | 77 ± 1 | < 1 |  |  | CC[C@H](C)[C@H](NC(=O)[C@@H](NC(=O)[C@@H]1CCCN1C(=O)[C@H](CCCNC(=N)N)NC(=O)[C@H](CCCNC(N)=NC(=O)NCCCCNC(=O)CN1CCN(CC(=O)O)CCN(CC(=O)O)CCN(CC(=O)O)CC1)NC)C(C)(C)c1ccc(O)cc1)C(=O)N[C@@H](CC(C)C)C(=O)O [Compound 56] | half-life at 100 µM (in vitro; plasma): > 24 h
